Patent publication US20140349955A1, “USE OF FLUORINE-CONTAINING WATER SOLUBLE PLATINUM COMPLEX IN PREPARING DRUGS FOR PREVENTION AND TREATMENT OF CANCERS” (GUDUI BIOPHARMA TECHNOLOGY INC., priority 2011, published 2014)

Tests used:
Format in all cases: cell-based, human
Details in all cases: 96 h
H460 = assay: Synergistic cytotoxicity test (MTS), H460
Method: (§1) Containing 10% bovine fetal serum, 1 mM of sodium pyruvate, 2 mM of L-glutamine, 50 U/mL of penicillin, 50 μg/ mL of streptomycin.
(§2) Human tumor cells: du145-human prostate cancer; MCF-7-human breast cancer; SK0V3-human ovarian carcinoma, HT-29-human colon cancer; A549-human non-small cell lung cancer (adenocarcinoma), H460-human non-small cell lung cancer (large cell carcinoma), and animal tumor cells: L1210-mice leukemia cells used in the following activity test experiments were all purchased from Shanghai An Yan Commercial Trade Co., Ltd.
(§3) MTS test method was used in cytotoxicity assay. The tumor cells of logarithmic phase were collected, and then the concentration of cell suspension was adjusted, 100 μL of the cell suspension was added to each well, the cells were placed at 1000-10000 cells/well (edge well filled with sterile PBS). Cells were incubated at 37° C. with 5% CO2 to make cell monolayer overspread the bottom of each well (96-well flat-bottomed microplate). 100 μL of certain concentration solution of a mixture of the fluorine-containing water-soluble platinum complex with other antitumor agents was added to each well. Each condition was measured in five replicates. The microplate was incubated at 37° C. with 5% CO2 for 96 h and checked with inverted microscope. MTS working reagent: To 2 mL of MTS (2 mg/mL, prepared by DPBS) was added 100 μL of PMS (1 mg/mL, prepared by DPBS). The cell culture medium was discarded after centrifugation, the cell culture plate was carefully washed 2-3 times with PBS. Before detecting the absorbance value (OD), to each sample containing well was added 100 μL of cell culture medium, then 20 μL of MTS working reagent was added. After incubation at 37° C. with 5% CO2 for 2 h, the OD (optical density) value was detected at 490 nm.
(§4) Each of above experiment was repeated five times, and the cell viability was calculated according to the mean OD values.
(§5) Cell Viability (%)=(treated group OD value/control group OD value)×100
(§6) Control group: the conditions are the same as the above without adding the tested drug mixture (100 μL of culture medium was added in stead), and finally the absorbance was measured at 490 nm to obtain the OD value of the tumor cells.
(§7) Drug Group-1: only the fluorine-containing water-soluble platinum complex was added under the above conditions to obtain cell viability of tumor cells.
(§8) Drug Group-2: only the other chemotherapeutic drug (active ingredient) was added under the above conditions to obtain cell viability of tumor cells.
(§9) Drug Combination Group: the fluorine-containing water-soluble platinum complex and other chemotherapeutic drugs were added simultaneously under the above conditions to obtain cell viability of tumor cell. (2) Evaluation Method:
(§10) When the fluorine-containing water-soluble platinum complexes used in combination with other chemotherapy drugs, the inhibition effect on cancer cell proliferation is enhanced or synergistic, and the effect was calculated using the following formula:
(§11) Combination Effect (%)={[(A1-X)+(A2-X)]/(A1-A2)|}×100
(§12) wherein, A1 is the cell viability of drug group-1, A2 is the cell viability of drug group-2, X is the cell viability of drug combination group, (A1-A2)| is the absolute value of the cell viability difference between the two groups.
(§13) Calculated according to the above formula, when the results of [Combination Effect (%)]>+100%, that means the effect of inhibition on cell proliferation is enhanced or synergistic (3) Experimental Result: […]

SK0V3 = assay: Synergistic cytotoxicity test (MTS), SKOV3
Method: as §1, §2, §3, §4, §5, §6, §7, §8, §9, §10, §11, §12, §13

A549 = assay: Synergistic cytotoxicity test (MTS), A549
Method: as §1, §2, §3, §4, §5, §6, §7, §8, §9, §10, §11, §12, §13

DU145 = assay: Synergistic cytotoxicity test (MTS), DU145
Method: as §1, §2, §3, §4, §5, §6, §7, §8, §9, §10, §11, §12, §13

MCF7 = assay: Synergistic cytotoxicity test (MTS), MCF7
Method: as §1, §2, §3, §4, §5, §6, §7, §8, §9, §10, §11, §12, §13

HT29 = assay: Synergistic cytotoxicity test (MTS), HT29
Method: as §1, §2, §3, §4, §5, §6, §7, §8, §9, §10, §11, §12, §13

[1] = other chemotherapy drug (at its listed dosage) combined with Complex 5 (dosage: 1 μM)
[2] = other chemotherapy drug (at its listed dosage) combined with Complex 6 (dosage: 1 μM)
[3] = other chemotherapy drug (at its listed dosage) combined with Complex 2 (dosage: 1 μM), SLOV3
[4] = other chemotherapy drug (at its listed dosage) combined with Complex 3 (dosage: 1 μM), SlOV3
[5] = other chemotherapy drug (at its listed dosage) combined with Complex 5 (dosage: 1 μM), SLOV3
[6] = other chemotherapy drug (at its listed dosage) combined with Complex 6 (dosage: 1 μM), SLOV3
[7] = other chemotherapy drug (at its listed dosage) combined with Complex 2 (dosage: 1 μM)
[8] = other chemotherapy drug (at its listed dosage) combined with Complex 3 (dosage: 1 μM)

SMILES | the effect of drug combination (Combination Effect) (H460; [1]) | the effect of drug combination (Combination Effect) (H460; [2]) | the effect of drug combination (Combination Effect) (SK0V3; [3]) | the effect of drug combination (Combination Effect) (SK0V3; [4]) | the effect of drug combination (Combination Effect) (SK0V3; [5]) | the effect of drug combination (Combination Effect) (SK0V3; [6]) | the effect of drug combination (Combination Effect) (A549; [7]) | the effect of drug combination (Combination Effect) (A549; [8]) | the effect of drug combination (Combination Effect) (DU145; [7]) | the effect of drug combination (Combination Effect) (DU145; [8]) | the effect of drug combination (Combination Effect) (DU145; [1]) | the effect of drug combination (Combination Effect) (DU145; [2]) | the effect of drug combination (Combination Effect) (MCF7; [7]) | the effect of drug combination (Combination Effect) (MCF7; [8]) | the effect of drug combination (Combination Effect) (MCF7; [1]) | the effect of drug combination (Combination Effect) (MCF7; [2]) | the effect of drug combination (Combination Effect) (HT29; [7]) | the effect of drug combination (Combination Effect) (HT29; [8]) | the effect of drug combination (Combination Effect) (HT29; [1]) | the effect of drug combination (Combination Effect) (HT29; [2])
C#Cc1cccc(Nc2ncnc3cc(OCCOC)c(OCCOC)cc23)c1 [Tarceva] | ⊚ (⊚ represents the effect of drug combination > 300%) | ⊚ (⊚ represents the effect of drug combination > 300%) | ○ (○ represents: 100% < the effect of drug combination < 300%) | ○ (○ represents: 100% < the effect of drug combination < 300%) | ○ (○ represents: 100% < the effect of drug combination < 300%) | ○ (○ represents: 100% < the effect of drug combination < 300%) | ⊚ (⊚ represents the effect of drug combination > 300%) | ⊚ (⊚ represents the effect of drug combination > 300%) | ○ (○ represents: 100% < the effect of drug combination < 300%) | ○ (○ represents: 100% < the effect of drug combination < 300%) | ○ (○ represents: 100% < the effect of drug combination < 300%) | ○ (○ represents: 100% < the effect of drug combination < 300%) | ○ (○ represents: 100% < the effect of drug combination < 300%) | ○ (○ represents: 100% < the effect of drug combination < 300%) | ○ (○ represents: 100% < the effect of drug combination < 300%) | ○ (○ represents: 100% < the effect of drug combination < 300%) | ⊚ (⊚ represents the effect of drug combination > 300%) | ⊚ (⊚ represents the effect of drug combination > 300%) | ⊚ (⊚ represents the effect of drug combination > 300%) | ⊚ (⊚ represents the effect of drug combination > 300%)
N.N.[Cl][Pt+2][Cl] [Transplatin] | ⊚ (⊚ represents the effect of drug combination > 300%) | ⊚ (⊚ represents the effect of drug combination > 300%) | ○ (○ represents: 100% < the effect of drug combination < 300%) | ○ (○ represents: 100% < the effect of drug combination < 300%) | ○ (○ represents: 100% < the effect of drug combination < 300%) | ○ (○ represents: 100% < the effect of drug combination < 300%) | ⊚ (⊚ represents the effect of drug combination > 300%) | ⊚ (⊚ represents the effect of drug combination > 300%) | ○ (○ represents: 100% < the effect of drug combination < 300%) | ○ (○ represents: 100% < the effect of drug combination < 300%) | ○ (○ represents: 100% < the effect of drug combination < 300%) | ○ (○ represents: 100% < the effect of drug combination < 300%) | ⊚ (⊚ represents the effect of drug combination > 300%) | ⊚ (⊚ represents the effect of drug combination > 300%) | ⊚ (⊚ represents the effect of drug combination > 300%) | ⊚ (⊚ represents the effect of drug combination > 300%) | ⊚ (⊚ represents the effect of drug combination > 300%) | ⊚ (⊚ represents the effect of drug combination > 300%) | ⊚ (⊚ represents the effect of drug combination > 300%) | ⊚ (⊚ represents the effect of drug combination > 300%)
CC(=O)O[C@H]1C(=O)[C@@]2(C)[C@H]([C@H](OC(=O)c3ccccc3)[C@]3(O)C[C@H](OC(=O)[C@H](O)[C@@H](NC(=O)c4ccccc4)c4ccccc4)C(C)=C1C3(C)C)[C@]1(OC(C)=O)CO[C@@H]1C[C@@H]2O [Paclitaxel] | ⊚ (⊚ represents the effect of drug combination > 300%) | ⊚ (⊚ represents the effect of drug combination > 300%) | ⊚ (⊚ represents the effect of drug combination > 300%) | ⊚ (⊚ represents the effect of drug combination > 300%) | ⊚ (⊚ represents the effect of drug combination > 300%) | ⊚ (⊚ represents the effect of drug combination > 300%) | ⊚ (⊚ represents the effect of drug combination > 300%) | ⊚ (⊚ represents the effect of drug combination > 300%) | ○ (○ represents: 100% < the effect of drug combination < 300%) | ⊚ (⊚ represents the effect of drug combination > 300%) | ⊚ (⊚ represents the effect of drug combination > 300%) | ⊚ (⊚ represents the effect of drug combination > 300%) | ⊚ (⊚ represents the effect of drug combination > 300%) | ⊚ (⊚ represents the effect of drug combination > 300%) | ⊚ (⊚ represents the effect of drug combination > 300%) | ⊚ (⊚ represents the effect of drug combination > 300%) | ⊚ (⊚ represents the effect of drug combination > 300%) | ⊚ (⊚ represents the effect of drug combination > 300%) | ⊚ (⊚ represents the effect of drug combination > 300%) | ○ (○ represents: 100% < the effect of drug combination < 300%)
